# In PubChem BioAssay AID504313 (Emory University Molecular Libraries Screening Center, 2011):
# Active and inactive are the calls of the source. No rule for the calls is given here.
# Biological target: X-box-binding protein 1 (Homo sapiens) (UniProt P17861)
# Assay: inhibitors of XBP1 reporter signal, dose response, counter-screen, cell-based (AID 504313);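 also: CHO cells carrying an XBP1 reporter stimulated with tunicamycin; potency is for inhibition of the tunicamycin-induced reporter signal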
# Conditions: XBP1 reporter cell assay, percent of control
row,Compound,IC50
1,CC(C)(C)c1ccc(-c2n[nH]c(=S)n2C2CCCC2)cc1,> 10 µM (inactive)
2,Cc1ccc2nc(NC(=O)C3CCN(S(=O)(=O)c4cc([N+](=O)[O-])ccc4Cl)CC3)sc2c1,inactive
3,C=CS(=O)(=O)c1ccc(Oc2ccc(S(=O)(=O)C=C)cc2)cc1,1 µM
4,O=c1oc2ccccc2c(Cl)c1CN1CCCCC1,inactive
5,C=CCOC(=O)C1=C(C)NC(C)=C(C(=O)OCC=C)C1/C=C/c1ccccc1,inactive
6,Cc1ccc(C(=O)CC(=O)c2cc(Cl)ccc2O)cc1,inactive
7,O=C(Nc1ccccc1)Nc1cc(OCC(F)(F)F)cc(OCC(F)(F)F)c1,3.95 µM
8,COc1ccc(CC(=O)Nc2cccc(-c3nnc(-c4cccc(C)c4)o3)c2)cc1OC,inactive
9,Cc1cc(C)n(-c2nc(Nc3ccccc3C(F)(F)F)nc(-n3nc(C)cc3C)n2)n1,inactive
10,C[C@H](NC(=O)c1nc[nH]c1C(=O)N[C@@H](Cc1ccccc1)C(=O)OC(C)(C)C)C(=O)OC(C)(C)C,inactive
11,Cc1ccc(NC2=C/C(=N\S(=O)(=O)c3cccs3)c3ccccc3C2=O)c(C)c1,0.55 µM
12,CC(C)CCN(C(=O)Cc1ccc(Cl)c(Cl)c1)c1c(N)n(Cc2ccccc2)c(=O)[nH]c1=O,inactive
13,CC[C@@H]1CC=C[C@H]2[C@H]1C(=O)N(Cc1ccccc1)[C@H]2c1ccoc1,inactive
14,O=C(Nc1ccc([N+](=O)[O-])cc1)Nc1ccc(OC(F)F)c(Cl)c1,inactive
15,O=C(Nc1nccs1)c1cc2c(s1)CCCCC2,> 10 µM (inactive)
16,O=C(N/N=C/c1cccc(F)c1)c1c(O)c2ccccc2[nH]c1=O,inactive
17,CC(C)=CCCC1(C)C=Cc2c(c(C)cc3c2[nH]c2cc(O)ccc23)O1 (stereo unspecified),inactive
18,CC(C)(C)c1cc(-c2csc(Nc3ccccc3)[n+]2Cc2ccc(C(=O)O)cc2)cc(C(C)(C)C)c1O,inactive
19,CC1=C/C(=N\OS(=O)(=O)c2ccccc2)C(C)=CC1=O,2.69 µM
20,COc1ccc(-c2cnc(OC(C)(C)C)nc2OC(C)(C)C)cc1OC,inactive
21,C/C(=C\c1ccco1)C1C(C#N)=C(N)Oc2n[nH]c(-c3ccc(C)cc3)c21 (stereo unspecified),> 10 µM (inactive)
22,C=CCSc1nc2ccccc2n1C(=O)/C=C/c1cc(OC)c(OC)c(OC)c1,1.73 µM
23,CC(C)(C)c1ccc(C(=O)Nc2ccc(CC(=O)O)cc2)o1,< 0.16 µM
24,O=C(CCl)Nc1cccc(-c2cnc3ccccc3n2)c1,> 10 µM (inactive)

row,Compound,IC50
1,C/C(=N\N=C1\NC(=O)C(CC(=O)Nc2ccc(C)c(Cl)c2)S1)C(C)(C)C (stereo unspecified),4.96 µM
2,CC(C)(C)c1ccc(CN2N=Nc3ccccc3S2(=O)=O)cc1,inactive
3,Cn1c2ccccc2c(=O)c2c(=O)n(C3CCCCCC3)c(C3CCCCC3)nc21,> 10 µM (inactive)
4,Cc1cc(C2=NNC(=NC3CC3)SC2)c(C)n1-c1ccccc1,< 0.16 µM (inactive)
5,CC1CCN(c2nc3ccc(C(=O)O)cc3s2)CC1,inactive
6,COc1ccc(/C=C2/SC(=S)N(CCCC(=O)Nc3ccc(O)cc3)C2=O)cc1,0.18 µM
7,Cc1ccc(COc2ccc(Br)cc2/C=N/O)cc1,> 10 µM (inactive)
8,CCN(CC)CCn1c(SCC(=O)Nc2ccc(F)cc2)nc2c(sc3ccccc32)c1=O,> 10 µM (inactive)
9,C/C(=N\OCc1cccc(C(=O)O)c1)c1ccc(Cl)cc1,inactive
10,COc1ccc(-c2nn(-c3ccccc3)cc2/C=N/N2C(=O)CSC2=S)cc1,> 10 µM (inactive)
11,CCOC(=O)C1=C(C)NC(C)=C(C(=O)OCC)C1/C=C/c1ccccc1,inactive
12,CCc1ccc(NP(=O)(Oc2ccccc2F)Oc2ccccc2F)cc1,> 10 µM (inactive)
13,CCn1cc([N+](=O)[O-])c(C(=O)N2N=C(c3ccc(Cl)c(Cl)c3)CC2c2ccccc2O)n1 (stereo unspecified),> 10 µM (inactive)
14,Fc1ccc(Nc2nc(NCc3ccco3)c3ccccc3n2)cc1,> 10 µM (inactive)
15,CS(=O)(=O)c1nc(-c2cccs2)cc(C(F)(F)F)n1,inactive
16,CCCCN=c1scc(-c2ccc3c(c2)NC(=O)CO3)n1N=C1CCCC1,inactive
17,COc1cc(-c2nc3ccc4ccccc4c3c3c2CCC3)cc(OC)c1O,inactive
18,CCc1c(C)sc(NC(=O)CSc2nc3c(c(C(F)(F)F)n2)CCc2ccccc2-3)c1C#N,> 10 µM (inactive)
19,CCOc1cc(/C=N\NC(=O)Cc2ccccc2)ccc1OCC(=O)Nc1ccc(C)c(C)c1,inactive
20,Nc1c(C(=O)Nc2nc3ccccc3s2)sc2nc(-c3cccs3)ccc12,inactive
21,Cc1ccc2[nH]c(O)c(N=NC(=O)CCc3ccccc3)c2c1Br,inactive
22,CC(C)C[C@H](NC(=O)c1nc[nH]c1C(=O)NCC(=O)OC(C)(C)C)C(=O)OCc1ccccc1,inactive
23,C=CCn1c(CCNC(=O)c2ccc(Cl)c(Cl)c2)nnc1SCCOc1ccc(OC)cc1,> 10 µM (inactive)
24,COc1ccc(C(=O)c2c(C(F)(F)F)oc3c2C(=O)c2ccccc2C3=O)cc1,inactive

row,Compound,IC50
1,O=C(NNc1ccccc1[N+](=O)[O-])Nc1ccc(Cl)c(Cl)c1,> 10 µM (inactive)
2,COc1cc(OC)nc(-n2ncc(Br)c(Br)c2=O)n1,1.99 µM
3,CN(C)c1ccc(C(CNS(=O)(=O)c2ccc(F)c(F)c2)c2c[nH]c3ccccc23)cc1 (stereo unspecified),inactive
4,O=S(=O)(NC1CC1)c1ccc(S(=O)(=O)N2CCCC3(CCCCC3)C2)cc1,inactive
5,COc1ccc(N2C(=O)CC(Sc3nnnn3-c3ccc(F)cc3)C2=O)cc1 (stereo unspecified),> 10 µM (inactive)
6,COc1ccc(NS(=O)(=O)c2ccc(O)c(NC(=O)c3cc4c(C)nn(-c5ccc(F)cc5)c4s3)c2)cc1,> 10 µM (inactive)
7,CC(C)C[C@H](NC(=O)c1[nH]cnc1C(=O)N[C@@H](C)C(=O)OC(C)(C)C)C(=O)OC(C)(C)C,2.71 µM
8,O=C(O)c1cccc(COc2ccc(CO)cc2Cl)c1,< 0.16 µM
9,O=C(CCCOc1ccc(Cl)cc1Cl)N/N=C\C1CCCCC1,inactive
10,CCOc1ccc(N(CC(=O)Nc2cccc(Cl)c2)S(=O)(=O)c2c(C)noc2C)cc1,inactive
11,CCCNC(=O)c1nnsc1S(=O)c1ccc(Cl)cc1 (stereo unspecified),inactive
12,O=S(=O)(NCC(Nc1ccc(Cl)cc1)c1ccccc1)c1ccc(Cl)cc1 (stereo unspecified),> 10 µM (inactive)
13,O=C(N/N=C/c1ccc(F)cc1)c1c(O)c2ccccc2[nH]c1=O,> 10 µM (inactive)
14,Cc1ccc(-c2nc(C(Cl)Cl)c3ccccc3n2)cc1,5.22 µM
15,O=C1CC(c2ccco2)CC(O)=C1C=Nc1ccccc1-c1ccccc1 (stereo unspecified),inactive
16,Cn1cnc([N+](=O)[O-])c1S(=O)(=O)c1ccc(Cl)cc1,inactive
17,CCCCCCNC(=O)CC(c1ccccc1)c1cc(Br)ccc1O (stereo unspecified),inactive
18,CC(=O)/C=C/n1c(=S)oc2ccccc21,inactive
19,CCOC(=O)c1cnc(-n2nc(C)cc2C)nc1NC1CCCCC1,inactive
20,CCSc1nc2ccccc2n1C(=O)/C=C/c1ccc(OC)c(OC)c1,4.84 µM
21,C=CCn1c(SCC(=O)c2[nH]c(C)c(C(=O)OC)c2C)nc2scc(-c3ccc(OC)c(OC)c3)c2c1=O,inactive
22,O=C1C(Cl)=C(Nc2ccccc2)C(=O)c2ccccc21,inactive
23,CN1CCN(c2ccc(-c3ccc4ccccc4n3)cc2)CC1,< 0.16 µM (inactive)
